Measured values: ChEMBL document CHEMBL1139178, “Probing acid replacements of thiophene PTP1B inhibitors” (Bioorg Med Chem Lett, 2007)

Assays:
[1] = target: T1, Tyrosine-protein phosphatase non-receptor type 1 (Homo sapiens, UniProt P18031); assay: Inhibition of PTP1B assessed as pNPP hydrolysis
T1 sequence (P18031 whole entry): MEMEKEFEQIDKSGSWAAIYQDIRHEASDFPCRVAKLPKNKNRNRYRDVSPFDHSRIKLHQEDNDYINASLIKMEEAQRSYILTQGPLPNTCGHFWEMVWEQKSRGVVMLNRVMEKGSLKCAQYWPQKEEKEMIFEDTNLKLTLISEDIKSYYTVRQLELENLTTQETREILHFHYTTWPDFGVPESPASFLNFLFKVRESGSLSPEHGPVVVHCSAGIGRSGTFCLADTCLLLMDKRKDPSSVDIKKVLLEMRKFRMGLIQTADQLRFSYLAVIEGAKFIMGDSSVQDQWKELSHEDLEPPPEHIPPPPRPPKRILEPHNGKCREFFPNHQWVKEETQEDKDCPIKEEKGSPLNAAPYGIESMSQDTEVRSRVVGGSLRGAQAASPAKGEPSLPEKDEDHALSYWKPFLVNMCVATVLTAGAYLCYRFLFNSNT

[2] = Permeability of compound by PAMPA; type: ADME; settings: read-out: permeability

SMILES	Ki [1]	IC50 [1]	Papp [2]
Cc1c(N2CC(=O)NS2(=O)=O)csc1-c1cccc(NC2CCCCC2)c1	12 µM		
O=C(O)COc1cc(-c2ccccc2)sc1-c1nn[nH]n1	120 µM		
C=CCOc1c(C(=O)O)sc(Br)c1Br		> 2500 µM	
CC1(C)CC(Nc2cccc(-c3sc(-c4nn[nH]n4)c(OCC(=O)O)c3Br)c2)CC(C)(C)C1	1.6 µM		
O=C1CN(c2csc(-c3ccccc3)c2Br)S(=O)(=O)N1		29 µM	
O=C(O)COc1csc(Br)c1Br		> 2500 µM	
O=C(O)c1sc(Br)c(Br)c1OCC(O)CO (stereo not drawn)		> 2500 µM	
O=C(O)COc1c(C(=O)Nc2nccs2)sc(Br)c1Br		> 2500 µM	
Cc1c(N2CC(=O)NS2(=O)=O)csc1-c1cccc(NC2CCN(S(=O)(=O)Cc3ccccc3)CC2)c1	4.3 µM		0.19 ×10⁻⁶ cm/s
O=C(O)COc1c(C(=O)CO)sc(Br)c1Br	210 µM	330 µM	
O=C1CN(c2c(Cl)sc(-c3ccccc3)c2Cl)S(=O)(=O)N1			3.54 ×10⁻⁶ cm/s
O=C(O)COc1c(CO)sc(Br)c1Br		> 2500 µM	
O=C(COc1c(C(=O)O)sc(Br)c1Br)NO		> 2500 µM	
Cc1c(-c2ccccc2)sc(-c2nnn[nH]2)c1OCC(=O)O	170 µM		
O=C(O)c1sc(Br)c(Br)c1OCCO		> 2500 µM	
O=C(O)c1sc(Br)c(Br)c1OCc1nn[nH]n1		> 2500 µM	
N#CCOc1c(C(=O)O)sc(Br)c1Br		> 2500 µM	

SMILES	Ki [1]	IC50 [1]	Papp [2]
NNC(=O)c1sc(Br)c(Br)c1OCC(=O)O		> 2500 µM	
CC(=O)Nc1sc(Br)c(Br)c1OCC(=O)O		> 2500 µM	
O=C(O)c1sc(Br)c(Br)c1OCC(F)(F)F		> 2500 µM	
O=C(O)COc1c(-c2nnn[nH]2)sc(Br)c1Br	270 µM	430 µM	
C=CCc1sc(Br)c(Br)c1OCC(=O)O		165 µM	
O=C(O)COc1c(C(=O)Nc2ccn[nH]2)sc(Br)c1Br		> 2500 µM	
O=C(O)COc1c(C(=O)O)sc(Br)c1Br		29 µM	
CCc1nc(-c2sc(Br)c(Br)c2OCC(=O)O)no1		> 2500 µM	
O=C(O)COc1c(-c2nnn[nH]2)sc(-c2cccc(NC3CCCCC3)c2)c1Br	18 µM		
O=C(O)COc1c(C(=O)N2CCOCC2)sc(Br)c1Br		210 µM	
CC(=O)N(c1cccc(-c2sc(-c3nn[nH]n3)c(OCC(=O)O)c2Br)c1)C1CC(C)(C)CC(C)(C)C1	4.6 µM		
O=C(O)COc1c(-c2nnn[nH]2)sc(-c2ccccc2)c1Br	20 µM		
N#Cc1sc(Br)c(Br)c1OCC(=O)O		> 2500 µM	
Cc1c(-c2cccc(OC3CCN(S(=O)(=O)Cc4ccccc4)CC3)c2)sc(-c2nn[nH]n2)c1OCC(=O)O	1.3 µM		0.22 ×10⁻⁶ cm/s
NC(=O)c1sc(Br)c(Br)c1OCC(=O)O		> 2500 µM	
CC(C)c1nc(-c2sc(Br)c(Br)c2OCC(=O)O)no1		> 2500 µM	
Cc1nc(-c2sc(Br)c(Br)c2OCC(=O)O)no1		> 2500 µM	
